In US8859653B2, “Rubber-steel cord composite” (Bridgestone Corporation, priority 2009, dated 2014):

Assay: octanol/water partition coefficient (log P) by high performance liquid chromatography according to JIS Z 7260-117 (2006)
Format: physicochemical
Description: The combination which is the best mode described above can be confirmed from a numerical value of an octanol/water partition coefficient (log Pow, hereinafter abbreviated as “log P”) which is one of simple measures for evaluating a condensation property of chemicals. In the present invention, the smaller the value of log P is, the better the balance between the vulcanization speed, securing of the adhesion performance and the accumulativeness in human bodies is.
In the present invention (including examples and the like described later), the octanol/water partition coefficient (log P) described above can be measured by a high performance liquid chromatography according to JIS Z 7260-117 (2006), and it is defined by the following equation: log P=log(┌Co┘/┌Cw┘)
Co: concentration of a test substance in a 1-octanol layer
Cw: concentration of a test substance in an aqueous layer
Also, the octanol/water partition coefficients (log P) of the respective vulcanization accelerators obtained (production examples 1 to 6) were measured by a high performance liquid chromatography according to JIS Z 7260-117 (2006). A high performance liquid chromatography manufactured by Shimadzu Corporation was used.

octanol/water partition coefficient (log P)	SMILES
5.3	CCCN(Sc1nc2ccccc2s1)C(C)(C)C [N-n-propyl-N-t-butylbenzothiazole-2-sulpheneamide]
5.8	CCCCN(Sc1nc2ccccc2s1)C(C)(C)C [N-n-butyl-N-t-butylbenzothiazole-2-sulpheneamide]
4.5	CN(Sc1nc2ccccc2s1)C(C)(C)C [N-methyl-N-t-butylbenzothiazole-2-sulpheneamide]
4.9	CCN(Sc1nc2ccccc2s1)C(C)(C)C [N-ethyl-N-t-butylbenzothiazole-2-sulpheneamide]

SMILES	octanol/water partition coefficient (log P)
CC(C)N(Sc1nc2ccccc2s1)C(C)(C)C [N-i-propyl-N-t-butylbenzothiazole-2-sulpheneamide]	5.1
